# Measurements taken from patent US6391911B1, “Coadministration of lucanthone and radiation for treatment of cancer” (priority 1999, dated 2002).
# “Also recorded” adds a separate entry of the source. Where a name gives a salt, the structure may show the parent alone. Starred links: 1 amine or outer side, 2 acyl side, 3 side chain; linkers in the order of their positions; H or OH if unused. Positions of bridges follow the written chain, without caps; N, C: chain ends. Non-standard residues stand in square brackets, D forms with d. Residues, ends and D or L forms follow the SMILES beside them. Chains are numbered I, II in the order given. Actinocin(9to1) = Cc1c2oc3c(C)ccc(C(=O)[*:1])c3nc-2c(C(=O)[*:2])c(N)c1=O; NMeV = CN[C@H](C(=O)O)C(C)C; Sar = CNCC(=O)O
# Experiments:
# [1] = Tissue distribution of ^3H lucanthone in tumor-bearing mice; format: in vivo, C3H-HeHa mice
# Method: Ten six-week-old 18-20 gram female C3H-HeHa mice obtained from West Seneca Laboratories (West Seneca, N.Y.) were injected subcutaneously in the right nipple line with 1.4×10^6 viable C3H-BA mammary adenocarcinoma cells. With such inocula, 1-2-mm tumors were detectable within 3 days. If allowed to grow, they killed the mice in 36-38 days. This highly invasive tumor could grow rapidly from inocula as low as 10^4 cells.
# In order to minimize the influence of tumor size on drug distribution, drug was administered at various times during the course of tumor growth. Each day, from the seventh to eleventh day after injection, two mice were injected intraperitoneally with 1.27 mg^3 H lucanthone methanesulfonate. Lucanthone methanesulfonate, after being labeled by tritium exchange of hydrogen, was 96%-99% pure by thin layer chromatography. Before injection in mice, the specific radioactivity of ^3H lucanthone, originally 135 MBq/mg, was reduced to 67.5 MBq/mg by dilution with unlabeled lucanthone methanesulfonate. The total dose of radioactivity was 8.74 MBq (236 μCi) in 0.44 ml. All mice were sacrificed on the twelfth day, at which time the tumors were all approximately the same size, 7-12 mm in greatest diameter.
# Distribution of tritium-labeled material in tissues represents lucanthone and its metabolites. Following sacrifice by cervical dislocation, the wet weight of samples of various organ or tumor tissue was determined immediately. Samples (about 50 mg each) were placed in glass scintillation vials with metal foil-lined caps. An alkaline tissue solubilizer, Protosol (DuPont—NEN), was added for digestion; radioactivity was determined by liquid scintillation techniques, as recommended by the manufacturer. Quench corrections were made for each sample to avoid interference from colored substances in individual samples. Hair was shaved from the skin samples to avoid its contribution to the weight of the sample.
# [2] = systemic chemotherapy; cited from earlier work
# [3] = Tolerability in human clinical studies; format: in vivo
# Method: Cancer patients were administered lucanthone hydrochloride in a total dose of 10 mg/Kg per day. The patients were given the drug in three divided doses in order to maintain blood and tissue levels. […] Lucanthone hydrochloride 250 mg tablets for clinical use [GRH/0/1581] were a gift of the Wellcome Foundation. Nausea and other side effects were not observed when patients received 10 mg/Kg.
# Standard whole brain radiation, 30 Gy with an 8 MeV linear accelerator in ten equal doses over 2 weeks, was given in conjunction with lucanthone at 10 mg/Kg in three doses/day. Patients were assigned to radiation alone or radiation and lucanthone from a table of random numbers. Tumor sizes for each patient were determined before and after therapy independently by two neuroradiologists who had no knowledge of the protocol assignments.
# Both treatments were omitted on weekends and were stopped after ten treatment days. […] No other chemotherapy was given during this time, except steroids, which is standard treatment with patients with brain metastases.
# [4] = reason for use as imaging control; cited from earlier work
# [5] = Gamma camera imaging of radiolabeled rat models; format: in vivo; details: rats; intravenous radiotracer; pinhole collimator
# Method: Rats were injected with ^125I-labeled lucanthone and ^99mTc-pertechnetate. Lucanthone hydrochloride used for ^125I labeling was 97.5% pure by HPLC mass spectroscopy (Sterling Winthrop Research Institute, R009CJ). ^125I labeled lucanthone was prepared by a modification of the chloramine T method, to be described in detail in a separate publication [Moran JK, Li Y, Deng HF, Labeling and biodistribution of lucanthone (in preparation)]. The product identity was confirmed by thin layer chromatography. ^99mTc-pertechnetate was obtained from a conventional laboratory supplier. The image acquisitions were performed using a Picker Dyna Camera 4C using Nuclear MAC imaging software running on a Power MAC 8100/80 AV computer. Images were obtained using a pinhole collimator with a collimator to rat distance of 6.5 cm.
# Each animal was imaged using ^99mTc-pertechnetate (3.7 MBq). […] Therefore, a photopenic area in the image corresponds to the location of the rat brain.
# Twenty-four hours following administration of ^99mTc-pertechnetate, ^125I lucanthone was administered to each test animal. Images were acquired in the left lateral position every 10 min after intravenous administration of 1.1 MBq of ^125I lucanthone.
compound,measurement,setting,value
CCN(CC)CCNc1ccc(C)c2sc3ccccc3c(=O)c12 [^3H lucanthone],^3H label in tumor tissue relative to skin and muscle,"[1]; first and second days following intraperitoneal drug injection, C3H-BA mammary adenocarcinoma",Enrichment of the ^3H label was detected in tumor tissue relative to skin and muscle
same,"^3H lucanthone uptake and removal in brain, lung and spleen",[1]; intraperitoneal injection,little difference
same,^3H label concentration in livers and kidneys compared with tumor,"[1]; intraperitoneal injection, principal excretory organs",higher concentrations were found than in the tumor
"Cc1c2oc3c(C)ccc(C(=O)N[C@@H]4C(=O)N[C@H](C(C)C)C(=O)N5CCC[C@H]5C(=O)N(C)CC(=O)N(C)[C@@H](C(C)C)C(=O)O[C@@H]4C)c3nc-2c(C(=O)N[C@@H]2C(=O)N[C@H](C(C)C)C(=O)N3CCC[C@H]3C(=O)N(C)CC(=O)N(C)[C@@H](C(C)C)C(=O)O[C@@H]2C)c(N)c1=O [actinomycin D] (I: T[dV]P[Sar][NMeV] / II: T[dV]P[Sar][NMeV]; ester I:1-I:C, II:1-II:C; linker I:N-II:N via Actinocin(9to1))",Crossing of the blood-brain barrier,[2],fail to cross the blood-brain barrier in useful amounts
COc1cc([C@@H]2c3cc4c(cc3[C@@H](O[C@@H]3O[C@@H]5CO[C@@H](C)O[C@H]5[C@H](O)[C@H]3O)[C@H]3COC(=O)[C@H]23)OCO4)cc(OC)c1O [etoposide],Crossing of the blood-brain barrier,[2],fail to cross the blood-brain barrier in useful amounts; also recorded: crosses the blood-brain barrier poorly
CCN(CC)CCNc1ccc(C)c2sc3ccccc3c(=O)c12 [lucanthone hydrochloride],Tolerability of total dose,"[3]; cancer patients, 10 mg/Kg per day in three divided doses",well tolerated
same,Nausea and other side effects,[3]; patients received 10 mg/Kg,not observed
^99mTc-pertechnetate,Crossing of the blood-brain barrier (known property),[4],known not to cross the blood-brain barrier
same,Photopenic area at the location of the brain in gamma camera scans,[5],show a photopenic area in the animal's head
